{"source": "patent US11471460B2", "about": "“Autophagy modulators for use in treating cancer” (The United States of America,as represented by the …, priority 2017, dated 2022)", "key": {"[1]": {"system": "melanoma A375 cells", "test": "A375 cell proliferation (crystal violet plate assay)", "assay_type": "cell-based, human"}, "[2]": {"system": "LC3-II and p62 in U2OS cells", "test": "Accumulation of autophagosome markers LC3-II and p62, Western immuno-blotting", "assay_type": "cell-based, human", "details": "U2OS cells", "experimental": "Cells were cultured for 4 hrs before total cell extracts were subjected to Western immuno-blotting for LC3, p62 and β-actin. Blot was developed with film. […] (C) U2OS cells were cultured for the times indicated in the presence of 1.2 μM compound 1 to produce 80% of the maximum observed in FIG. 10A. Total cell extracts were assayed at the times indicated. […] All blots were stained with Ponceau S […].\nTotal cell lysates were prepared (in 4× dye). Proteins were fractionated at 200V in a NuPAGE 4-12% bis-tris polyacrylamide gel (NP0323, Novex) using NuPAGE MES running buffer (NP0002, Novex) and then stained with PageBlue (24260, Thermo Scientific) in order to quantify the relative amount of histones in each sample. […] Proteins were wet-transferred onto nitrocellulose membranes (162-0112, Bio-Rad) using NuPAGE transfer buffer (NP-0006-1, Novex) for 1 hour at 30V. Membranes were then stained with dilute Ponceau S solution, blocked in 5% milk for 30 minutes at room temperature, and incubated overnight at 4° C. in primary antibody. Membranes were washed with phosphate buffered saline with tween 20 (PBST) three times for 10 min. each, incubated with secondary antibodies in 5% milk for 1 hour, washed three times with PBST again, covered in ECL (SuperSignal West Pico chemiluminescent substrate, 34080, Thermo Scientific) and exposed to film (HyBlot ES, E3218, Denville Scientific)."}, "[3]": {"system": "osteosarcoma U2OS cells", "test": "Induction of cytoplasmic vacuoles (enlarged lysosomes) in U2OS cells, light microscopy", "assay_type": "cell-based, human", "details": "for Concentration to induce LC3-II accumulation, inhibit proliferation or viability relative to concentration to observe vacuolization: same U2OS cells", "source_text": "Vehicle is the concentration of DMSO that was introduced by addition of compounds.\nThese effects are dependent on the compound selected, its concentration and the length of time cells are exposed to the compound.\n(§1) Cells were obtained from the American Type Culture Collection. BORCS5-KO HeLa cells have been described previously. Osteosarcoma U2OS were routinely seeded in 6-well plates (0.5×10^5 cells/well) and cultured in Dulbecco's Modified Eagle's medium supplemented with L-Glutamine, 4.5 g/L Glucose, Sodium Pyruvate, Phenol Red, and either heat-inactivated or normal 10% fetal calf serum at 37° C. in 5% CO2. Approximately 15-19 hours later, the indicated compound was added in 1:1000 dilutions. Results were the same using either heat-inactivated or normal fetal calf serum. Melanoma A375, embryonic kidney 293T and human foreskin fibroblast Hs27 cells were cultured in the same medium, except that cells were seeded into 12-well plates at 10^3 cells/well.\nPhase contrast photographs were taken on an Olympus CKX41 microscope. Confocal photographs were taken on a Leica TCS-SP5II. For immunofluorescence microscopy, the cells were fixed in 4% paraformaldehyde (Electron Microscopy Sciences, 15714) in PBS for 12 min, permeabilized with 0.2% Triton X-100 in PBS for 10 min, and blocked in 0.2% BSA (Sigma-Aldrich, A7030) in PBS for 30 min at 37° C. For endogenous LC3 staining, cells were permeabilized in methanol for 20 min at −20° C. after the paraformaldehyde fixation. The cells were sequentially incubated with primary antibodies (LAMP1: Developmental Studies Hybridoma Bank; LC3 and LAMTOR4: Cell Signaling Technology; FLAG epitope: Sigma-Aldrich) and secondary antibodies conjugated to Alexa Fluor dyes (Life Technologies) diluted with 0.2% BSA in PBS for 30 min at 37° C. Coverslips were mounted on glass slides using Fluoromount-G (Electron Microscopy Sciences, 17984-24). Cells were imaged using a Zeiss LSM880 with AiryScan confocal microscope (Carl Zeiss AG, Oberkochen, Germany) or a Leica TCS-SP5II. The final composite images were created and properly analyzed for lysosomal size examination using ImageJ (NIH)."}, "[4]": {"system": "breast adenocarcinoma cells", "test": "Viability of breast adenocarcinoma cells", "assay_type": "cell-based", "details": "Homo sapiens", "experimental": "(§2) FIG. 18 summarizes results from 13 human cell lines. All cells were seeded at the same cell density in a rich culture medium and assayed under identical conditions. Compound 1 efficacy is the ratio of cell viability with compound 1 to cell viability with chloroquine derivatives."}, "[5]": {"system": "embryonic kidney cells", "test": "Viability of embryonic kidney cells", "assay_type": "cell-based", "details": "Homo sapiens", "experimental": "as §2\nas §1, with “Results were the same using either heat-inactivated or normal fetal calf serum.” left out"}, "[6]": {"system": "melanoma A375 cells", "test": "Cytoplasmic vacuolization of A375 cells", "assay_type": "cell-based, human"}, "[7]": {"system": "human foreskin fibroblasts", "test": "Proliferation/viability of human foreskin fibroblasts", "assay_type": "cell-based", "details": "Fibroblast", "experimental": "Concentration of each compound in the plate assay is indicated below the compound 1 plate.\nas §1, with “Results were the same using either heat-inactivated or normal fetal calf serum.” left out"}, "[8]": {"molecular_target": "T1, PIKFYVE (Homo sapiens, UniProt Q9Y2I7)", "T1 construct": "purchased DiscoverX (KINOMEscan service, San Diego, Calif.)", "T1 sequence (Q9Y2I7 whole entry)": "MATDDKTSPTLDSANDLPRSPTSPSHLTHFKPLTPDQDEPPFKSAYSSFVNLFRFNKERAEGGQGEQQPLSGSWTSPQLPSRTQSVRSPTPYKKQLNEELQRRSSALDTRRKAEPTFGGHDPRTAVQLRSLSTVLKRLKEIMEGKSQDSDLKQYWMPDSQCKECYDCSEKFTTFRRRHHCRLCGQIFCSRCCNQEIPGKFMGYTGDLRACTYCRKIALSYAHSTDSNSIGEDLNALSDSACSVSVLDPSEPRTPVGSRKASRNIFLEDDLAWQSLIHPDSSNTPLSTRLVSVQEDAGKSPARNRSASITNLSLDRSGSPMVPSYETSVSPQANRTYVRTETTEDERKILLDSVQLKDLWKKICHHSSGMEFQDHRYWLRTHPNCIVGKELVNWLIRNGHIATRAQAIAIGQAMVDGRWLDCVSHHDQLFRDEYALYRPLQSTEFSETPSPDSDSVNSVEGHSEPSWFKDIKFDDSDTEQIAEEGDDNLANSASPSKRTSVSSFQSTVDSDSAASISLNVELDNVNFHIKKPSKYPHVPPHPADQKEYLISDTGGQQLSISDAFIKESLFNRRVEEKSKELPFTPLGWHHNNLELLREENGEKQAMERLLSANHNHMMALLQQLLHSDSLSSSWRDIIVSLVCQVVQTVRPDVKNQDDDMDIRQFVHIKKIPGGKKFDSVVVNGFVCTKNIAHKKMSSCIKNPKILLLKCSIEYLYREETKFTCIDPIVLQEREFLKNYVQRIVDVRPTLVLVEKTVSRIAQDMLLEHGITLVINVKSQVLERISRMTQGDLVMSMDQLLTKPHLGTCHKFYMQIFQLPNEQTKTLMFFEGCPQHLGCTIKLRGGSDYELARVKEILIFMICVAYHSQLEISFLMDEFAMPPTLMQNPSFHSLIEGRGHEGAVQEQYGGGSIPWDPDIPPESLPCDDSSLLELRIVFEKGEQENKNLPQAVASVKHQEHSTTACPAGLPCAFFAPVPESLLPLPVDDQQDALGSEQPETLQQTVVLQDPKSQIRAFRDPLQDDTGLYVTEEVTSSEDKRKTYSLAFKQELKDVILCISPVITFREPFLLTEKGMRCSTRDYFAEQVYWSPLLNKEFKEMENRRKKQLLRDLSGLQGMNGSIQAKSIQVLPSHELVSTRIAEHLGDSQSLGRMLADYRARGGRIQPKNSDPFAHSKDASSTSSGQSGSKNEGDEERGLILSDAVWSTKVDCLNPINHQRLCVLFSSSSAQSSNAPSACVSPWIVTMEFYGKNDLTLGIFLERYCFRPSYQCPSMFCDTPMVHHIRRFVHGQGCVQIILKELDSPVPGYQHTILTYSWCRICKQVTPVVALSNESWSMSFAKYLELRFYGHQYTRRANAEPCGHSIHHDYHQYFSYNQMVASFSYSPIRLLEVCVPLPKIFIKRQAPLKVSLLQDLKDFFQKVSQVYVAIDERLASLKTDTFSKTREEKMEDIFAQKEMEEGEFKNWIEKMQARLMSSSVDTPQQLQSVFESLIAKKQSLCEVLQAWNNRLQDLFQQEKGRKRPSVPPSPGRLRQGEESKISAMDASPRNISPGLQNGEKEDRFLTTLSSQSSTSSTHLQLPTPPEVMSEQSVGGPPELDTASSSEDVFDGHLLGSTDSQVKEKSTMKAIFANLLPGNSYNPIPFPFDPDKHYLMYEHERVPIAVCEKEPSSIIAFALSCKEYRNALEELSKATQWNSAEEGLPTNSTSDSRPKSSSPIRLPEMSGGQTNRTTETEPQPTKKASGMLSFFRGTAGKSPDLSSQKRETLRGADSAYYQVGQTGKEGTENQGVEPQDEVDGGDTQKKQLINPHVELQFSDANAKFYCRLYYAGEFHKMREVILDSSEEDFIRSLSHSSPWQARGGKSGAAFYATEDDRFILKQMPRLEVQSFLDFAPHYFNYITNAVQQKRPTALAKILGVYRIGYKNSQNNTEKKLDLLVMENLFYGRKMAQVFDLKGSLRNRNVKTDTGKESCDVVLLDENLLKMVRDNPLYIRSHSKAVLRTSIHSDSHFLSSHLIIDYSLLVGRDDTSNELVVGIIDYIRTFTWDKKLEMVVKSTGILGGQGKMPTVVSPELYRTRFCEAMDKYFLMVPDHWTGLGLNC", "test": "DiscoverX KINOMEscan dissociation constant", "assay_type": "binding", "experimental": "Each kinase was tagged with a unique DNA sequence that allowed the amount of protein bound to the solid support to be quantified by PCR. The top three targets for compound 1 were PIKFYVE, PIP4K2C and MTOR. […] Dissociation constants (Kd) were determined from the amount of kinase captured on the solid support as a function of the test compound concentration (nM) on a log10 scale. Mean Kd values (±range) are given for each compound. The ratio of PIP4K2C to PIKFYVE indicates the relative specificity for these two kinases.\nTo address this hypothesis, a panel of 468 human kinases were screened for their ability to bind compound 1. […] The top two candidates were PIKFYVE (phosphoinositide kinase FYVE-type zinc finger containing) and PIP4K2C (phosphatidylinositol-5-phosphate 4-kinase). PIKFYVE is a kinase that is essential for mouse development (49) and that prevents endosome enlargement and cytoplasmic vacuolization (50, 51). PIP4K2C is a kinase that is not essential for mouse growth and viability, but it is essential for the immune system (52), mTORC1 signaling (53), and regulation of autophagy (54). The third candidate was MTOR, a kinase that regulates autophagy (55). Therefore, the binding constants (Kd) for all five members of the compound 1-family were determined for each of these three proteins from two independent titration curves, as shown for compound 1."}}, "note": "Read-outs that look alike come from different tables or passages of the source."}
{"smiles": "Cc1cccc(/C=N/Nc2cc(N3CCOCC3)nc(OCCc3ccccn3)n2)c1", "note": "[Apilimod]", "values": [{"measurement": "Inhibition of proliferation of melanoma A375 cells", "setting": "[1]", "value": "effective"}]}
{"smiles": "CO/C1=C\\C(C)=C\\[C@@H](C)[C@@H](O)[C@@H](C)C/C(C)=C/C=C/[C@H](OC)[C@@H]([C@@H](C)[C@@H](O)[C@H](C)[C@@]2(O)C[C@@H](O)[C@H](C)[C@@H](C(C)C)O2)OC1=O", "note": "[BafA1, Bafilomycin-A1, reference compound]", "values": [{"measurement": "Accumulation of LC3-II", "setting": "[2]", "value": "induced the accumulation of LC3-II"}, {"measurement": "Induction of vacuoles / enlarged lysosomes", "setting": "[3]; U2OS cells", "value": "did not induce formation of enlarged lysosomes"}, {"measurement": "Effect on vacuole accumulation induced by the compounds of the invention", "setting": "[3]; U2OS cells, BafA1 together with compound 1", "value": "prevented induction of vacuole accumulation"}]}
{"smiles": "CCN(CC)CCCC(C)Nc1ccnc2cc(Cl)ccc12", "note": "(stereo not shown) [CQ, chloroquine]", "values": [{"measurement": "EC50", "setting": "[4]", "value": "> 10", "unit": "µM"}, {"measurement": "EC50", "setting": "[5]", "value": "> 10", "unit": "µM"}, {"measurement": "Cytoplasmic vacuolization of A375 cells", "setting": "[6]", "value": "not observed"}, {"measurement": "EC50", "setting": "[7]; Homo sapiens", "value": "> 10", "unit": "µM"}, {"measurement": "Inhibition of proliferation of melanoma A375 cells", "setting": "[1]", "value": "inhibited A375 cell proliferation"}]}
{"smiles": "CCN(CCO)CCCC(C)Nc1ccnc2cc(Cl)ccc12", "note": "(stereo not shown) [HCQ, hydroxychloroquine]", "values": [{"measurement": "EC50", "setting": "[4]; breast adenocarcinoma cells, read-out: EC50", "value": "> 10", "unit": "µM"}, {"measurement": "EC50", "setting": "[5]; embryonic kidney cells, read-out: EC50", "value": "> 10", "unit": "µM"}, {"measurement": "Cytoplasmic vacuolization of A375 cells", "setting": "[6]", "value": "not observed"}, {"measurement": "EC50", "setting": "[7]; human foreskin fibroblasts, read-out: EC50", "value": "> 10", "unit": "µM"}, {"measurement": "Inhibition of proliferation of melanoma A375 cells", "setting": "[1]", "value": "inhibited A375 cell proliferation"}]}
{"smiles": "Ic1cccc(/C=N/Nc2nc(N3CCOCC3)nc(N(c3ccccc3)c3ccccc3)n2)c1", "note": "[Vacuolin]", "values": [{"measurement": "Inhibition of proliferation of melanoma A375 cells", "setting": "[1]", "value": "effective"}]}
{"smiles": "Nc1ccc(C(=O)Nc2cccc(-c3nc(N4CCOCC4)c4oc5ncccc5c4n3)c2)cn1", "note": "[YM201636]", "values": [{"measurement": "Inhibition of proliferation of melanoma A375 cells", "setting": "[1]", "value": "effective"}]}
{"smiles": "Fc1ccc(Nc2nc(N3CCOCC3)nc(N3CCOCC3)n2)cc1Cl", "note": "[compound 2]", "values": [{"measurement": "Concentration to induce LC3-II accumulation, inhibit proliferation or viability relative to concentration to observe vacuolization", "setting": "[3]", "value": "two to three-fold"}]}
{"smiles": "CCc1ccc(Nc2nc(N3CCOCC3)nc(N3CCOCC3)n2)cc1", "note": "[compound 3]", "values": [{"measurement": "Concentration to induce LC3-II accumulation, inhibit proliferation or viability relative to concentration to observe vacuolization", "setting": "[3]", "value": "two to three-fold"}, {"measurement": "Kd", "setting": "[8]; mean of two independent titration curves", "value": 0.016, "unit": "µM"}]}
{"smiles": "Cc1cccc(/C=N/Nc2cc(N3CCOCC3)nc(N3CCOCC3)n2)c1", "note": "[compound 4]", "values": [{"measurement": "Concentration to induce LC3-II accumulation, inhibit proliferation or viability relative to concentration to observe vacuolization", "setting": "[3]", "value": "about 10 fold"}, {"measurement": "Standing within the family for PIKFYVE binding", "setting": "[8]", "value": "the most specific"}]}
{"smiles": "C(=N\\Nc1cc(N2CCOCC2)nc(N2CCOCC2)n1)/c1ccccc1", "note": "[compound 5]", "values": [{"measurement": "Concentration to induce LC3-II accumulation, inhibit proliferation or viability relative to concentration to observe vacuolization", "setting": "[3]", "value": "about 15 fold"}]}
